Reference: US20260365670A1, “EGFR INHIBITORS AND USES THEREOF” (DIZAL (JIANGSU) PHARMACEUTICAL CO., LTD., priority 2022, published 2026)
Where two headings read alike, the source gives them in different places.

Columns and labels:
EGFR wild type = molecular target: T1, EGFR wild type (Homo sapiens, UniProt P00533); assay: Inhibition of EGFR wild type biochemical enzymatic activity (HTRF); details: 1 mM ATP
T1 construct: purchased Carna Bio
Outline: (§1)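 Read-out is the HTRF 665/615 nm ratio (excitation 320 nm), taken as proportional to kinase activity after a 1 h room-temperature reaction with 1 mM ATP and 1 μM biotinylated TK substrate. IC50 values derive from four-parameter logistic fitting.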

EGFR L858R = molecular target: T2, EGFR L858R (Homo sapiens, UniProt P00533, L858R); assay: Inhibition of EGFR L858R biochemical enzymatic activity (HTRF); details: 1 mM ATP
T2 construct: purchased Carna Bio
T2 sequence (P00533 25-1210 L858R): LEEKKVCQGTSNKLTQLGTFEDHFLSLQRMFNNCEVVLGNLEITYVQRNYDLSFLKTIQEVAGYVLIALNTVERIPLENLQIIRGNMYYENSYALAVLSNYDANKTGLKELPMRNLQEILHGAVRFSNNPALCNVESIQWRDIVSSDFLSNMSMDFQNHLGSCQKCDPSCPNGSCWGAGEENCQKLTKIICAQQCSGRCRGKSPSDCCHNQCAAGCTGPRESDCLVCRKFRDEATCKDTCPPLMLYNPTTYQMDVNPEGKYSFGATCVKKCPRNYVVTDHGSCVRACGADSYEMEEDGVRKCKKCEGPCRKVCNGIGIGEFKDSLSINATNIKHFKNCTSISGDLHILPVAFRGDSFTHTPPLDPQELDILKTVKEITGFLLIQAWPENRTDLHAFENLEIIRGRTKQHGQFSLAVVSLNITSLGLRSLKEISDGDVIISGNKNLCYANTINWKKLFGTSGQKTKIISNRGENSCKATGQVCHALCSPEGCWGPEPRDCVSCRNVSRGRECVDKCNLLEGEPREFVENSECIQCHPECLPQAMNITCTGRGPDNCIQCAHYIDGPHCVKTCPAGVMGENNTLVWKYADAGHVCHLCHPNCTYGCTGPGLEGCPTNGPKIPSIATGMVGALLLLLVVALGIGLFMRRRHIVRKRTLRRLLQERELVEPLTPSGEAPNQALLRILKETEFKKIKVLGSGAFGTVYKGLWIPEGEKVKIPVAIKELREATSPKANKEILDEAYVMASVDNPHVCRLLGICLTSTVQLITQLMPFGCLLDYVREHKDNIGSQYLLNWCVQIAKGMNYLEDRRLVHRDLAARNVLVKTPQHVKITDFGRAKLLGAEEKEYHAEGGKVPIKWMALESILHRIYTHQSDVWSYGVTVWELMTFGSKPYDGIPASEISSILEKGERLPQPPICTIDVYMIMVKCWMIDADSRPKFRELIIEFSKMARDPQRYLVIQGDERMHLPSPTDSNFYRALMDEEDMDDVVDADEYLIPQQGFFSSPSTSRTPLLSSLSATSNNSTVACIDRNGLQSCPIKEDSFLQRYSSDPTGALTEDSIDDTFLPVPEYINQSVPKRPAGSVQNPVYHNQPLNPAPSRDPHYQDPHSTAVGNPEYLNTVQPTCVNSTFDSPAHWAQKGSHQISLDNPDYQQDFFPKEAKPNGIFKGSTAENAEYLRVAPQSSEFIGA
Outline: as §1

EGFR L858R/T790M = molecular target: T3, EGFR L858R/T790M (Homo sapiens, UniProt P00533, L858R/T790M); assay: Inhibition of EGFR L858R/T790M biochemical enzymatic activity (HTRF); details: 1 mM ATP
T3 construct: purchased Carna Bio
T3 sequence (P00533 25-1210 T790M/L858R): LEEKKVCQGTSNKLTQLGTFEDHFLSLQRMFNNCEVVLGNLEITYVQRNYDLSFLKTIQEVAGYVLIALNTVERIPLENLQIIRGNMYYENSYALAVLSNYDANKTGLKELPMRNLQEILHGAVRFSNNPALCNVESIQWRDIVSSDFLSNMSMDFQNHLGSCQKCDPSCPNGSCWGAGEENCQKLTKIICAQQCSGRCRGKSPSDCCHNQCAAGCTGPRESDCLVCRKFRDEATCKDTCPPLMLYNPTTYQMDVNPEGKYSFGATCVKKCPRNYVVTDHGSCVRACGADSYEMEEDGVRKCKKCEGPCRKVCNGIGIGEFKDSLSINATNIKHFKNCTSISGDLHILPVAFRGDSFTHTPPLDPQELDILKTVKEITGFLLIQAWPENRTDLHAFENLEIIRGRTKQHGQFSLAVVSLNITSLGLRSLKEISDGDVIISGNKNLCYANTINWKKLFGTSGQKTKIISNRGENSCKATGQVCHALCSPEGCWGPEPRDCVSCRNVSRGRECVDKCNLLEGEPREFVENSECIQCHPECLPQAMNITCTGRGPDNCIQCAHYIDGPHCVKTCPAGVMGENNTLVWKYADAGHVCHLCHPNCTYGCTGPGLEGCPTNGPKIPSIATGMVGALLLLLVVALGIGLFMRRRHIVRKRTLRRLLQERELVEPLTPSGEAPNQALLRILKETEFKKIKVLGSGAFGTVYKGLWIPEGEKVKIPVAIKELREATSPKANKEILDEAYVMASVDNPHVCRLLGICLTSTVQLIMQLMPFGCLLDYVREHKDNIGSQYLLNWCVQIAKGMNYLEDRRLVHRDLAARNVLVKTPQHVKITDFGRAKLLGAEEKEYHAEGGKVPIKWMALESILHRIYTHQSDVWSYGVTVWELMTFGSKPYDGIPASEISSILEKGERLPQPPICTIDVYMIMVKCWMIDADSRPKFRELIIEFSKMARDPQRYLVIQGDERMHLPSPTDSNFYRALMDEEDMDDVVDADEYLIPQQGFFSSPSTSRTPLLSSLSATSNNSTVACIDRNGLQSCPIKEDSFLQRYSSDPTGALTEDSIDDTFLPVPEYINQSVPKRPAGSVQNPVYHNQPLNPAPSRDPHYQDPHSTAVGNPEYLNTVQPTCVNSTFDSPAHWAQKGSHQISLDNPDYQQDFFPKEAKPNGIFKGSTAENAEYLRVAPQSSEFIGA
Outline: as §1

EGFR Exon19Del = molecular target: T4, EGFR Exon19Del (Homo sapiens, UniProt P00533, DEL746-750); assay: Inhibition of EGFR Exon19Del biochemical enzymatic activity (HTRF); details: read-out: IC50 @Del19
T4 construct: purchased Carna Bio
Outline: as §1

EGFR Exon19Del/T790M = molecular target: T5, EGFR Exon19Del/T790M (Homo sapiens, UniProt P00533, DEL746-750/T790M); assay: Inhibition of EGFR Exon19Del/T790M biochemical enzymatic activity (HTRF); details: 1 mM ATP
T5 construct: purchased Carna Bio
Outline: as §1

EGFR[T790M/C797S/L858R] = molecular target: T6, EGFR[T790M/C797S/L858R] (Homo sapiens, UniProt P00533, C797S/L858R/T790M); assay: Inhibition of EGFR[T790M/C797S/L858R] biochemical enzymatic activity (HTRF); details: 1 mM ATP
T6 construct: purchased Carna Bio
T6 sequence (P00533 25-1210 T790M/C797S/L858R): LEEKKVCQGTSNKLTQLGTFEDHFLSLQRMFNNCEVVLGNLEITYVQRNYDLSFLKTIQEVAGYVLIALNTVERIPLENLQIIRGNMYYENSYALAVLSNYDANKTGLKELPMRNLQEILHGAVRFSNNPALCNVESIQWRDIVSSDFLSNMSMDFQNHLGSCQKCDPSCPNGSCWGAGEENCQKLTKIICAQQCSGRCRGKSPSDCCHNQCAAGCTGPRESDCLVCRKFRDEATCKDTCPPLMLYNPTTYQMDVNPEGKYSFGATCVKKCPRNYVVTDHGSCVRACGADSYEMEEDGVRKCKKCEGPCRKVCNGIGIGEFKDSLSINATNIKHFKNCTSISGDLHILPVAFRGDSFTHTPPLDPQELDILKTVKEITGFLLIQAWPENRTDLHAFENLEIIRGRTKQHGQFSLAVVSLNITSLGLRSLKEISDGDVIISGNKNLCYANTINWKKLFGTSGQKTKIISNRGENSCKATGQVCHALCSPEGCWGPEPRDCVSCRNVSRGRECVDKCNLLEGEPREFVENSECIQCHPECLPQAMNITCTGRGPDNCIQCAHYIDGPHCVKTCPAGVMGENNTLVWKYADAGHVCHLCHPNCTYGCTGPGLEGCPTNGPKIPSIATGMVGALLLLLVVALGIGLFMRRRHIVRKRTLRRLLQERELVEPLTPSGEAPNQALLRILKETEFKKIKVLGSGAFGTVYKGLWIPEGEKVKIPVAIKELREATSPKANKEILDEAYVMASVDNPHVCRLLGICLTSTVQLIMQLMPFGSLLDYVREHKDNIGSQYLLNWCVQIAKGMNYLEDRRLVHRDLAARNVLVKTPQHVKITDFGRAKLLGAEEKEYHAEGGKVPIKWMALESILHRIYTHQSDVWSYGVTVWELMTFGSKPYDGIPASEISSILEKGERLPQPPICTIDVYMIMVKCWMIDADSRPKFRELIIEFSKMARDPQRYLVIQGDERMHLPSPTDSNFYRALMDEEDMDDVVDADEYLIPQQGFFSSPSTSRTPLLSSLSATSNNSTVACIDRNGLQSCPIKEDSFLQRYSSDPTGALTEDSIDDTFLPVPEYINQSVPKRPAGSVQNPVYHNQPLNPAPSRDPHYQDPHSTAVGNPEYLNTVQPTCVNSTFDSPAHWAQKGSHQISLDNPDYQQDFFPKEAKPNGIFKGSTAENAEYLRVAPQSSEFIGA
Outline: as §1

[1] = molecular target: T7, EGFR[T790M/C797S/d746-750] (Homo sapiens, UniProt P00533, C797S/DEL746-750/T790M); assay: Inhibition of EGFR[T790M/C797S/d746-750] biochemical enzymatic activity (HTRF)
T7 construct: purchased Carna Bio
Outline: as §1

EGFR (d746-750 C797S) = molecular target: T8, EGFR (d746-750 C797S) (Homo sapiens, UniProt P00533, C797S/DEL746-750); assay: Inhibition of EGFR (d746-750 C797S) biochemical enzymatic activity (HTRF); details: 1 mM ATP
T8 construct: purchased signalchem
Outline: as §1

EGFR (C797S L858R) = molecular target: T9, EGFR (C797S L858R) (Homo sapiens, UniProt P00533, C797S/L858R); assay: Inhibition of EGFR (C797S L858R) biochemical enzymatic activity (HTRF); details: 1 mM ATP
T9 construct: purchased signalchem
Outline: as §1

[2] = system: Ba/F3 cells expressing EGFR mutations; assay: Cell proliferation assay, Ba/F3 cells expressing EGFR mutations (CellTiter-Glo, 72 hours); format: cell-based
Outline: (§2)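 Ba/F3 cells carrying EGFR mutants (5000/well) or PC-9 cells (500/well) in RPMI1640 were dosed with compound series after overnight attachment and grown 72 h. Viability read by CellTiter-Glo, with day-0 counts subtracted; GI50 from curve fits of % proliferation versus DMSO control.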

PC-9 = assay: Cell proliferation assay, PC-9 cells (CellTiter-Glo, 72 hours); format: cell-based; details: PC9 cells
Outline: as §2

[3] = EGFR WT, 1 h, room temperature, read-out: IC50 (nM) @WT
[4] = 1 h, room temperature, read-out: IC50 (nM) @L858R
[5] = EGFR L858R-T790M, 1 h, room temperature, read-out: IC50 (nM) @L858R-T790M
[6] = EGFR Del19, 1 mM ATP, 1 h, room temperature
[7] = EGFR Del19-T790M, 1 h, room temperature, read-out: IC50 (nM) @Del19-T790M
[8] = EGFR T790M-C797S-L858R, 1 h, room temperature, read-out: IC50 (nM) @T790M- C797S - L858R
[9] = EGFR T790M-C797S-Del19, 1 mM ATP, 1 h, room temperature, read-out: IC50 (nM) @T790M - C797S - Del19
[10] = EGFR Del19-C797S, 1 h, room temperature, read-out: IC50 (nM) @Del19-C797S
[11] = EGFR L858-C797S, 1 h, room temperature, read-out: IC50 (nM) @L858-C797S
[12] = BaF3 cells, EGFR DEL19-C797S, CellTiter-Glo, read-out: DEL19-C797S/BaF3 GI50
[13] = BaF3 cells, EGFR DEL19-T790-C797S, CellTiter-Glo, read-out: DEL19-T790-C797S/BaF3 GI50
[14] = BaF3 cells, EGFR L858R, CellTiter-Glo, read-out: L858R/BaF3 GI50
[15] = BaF3 cells, EGFR L858R-C797S, CellTiter-Glo, read-out: L858R-C797S/BaF3 GI50
[16] = BaF3 cells, EGFR L858R-T790-C797S, CellTiter-Glo, read-out: L858R-T790-C797S/BaF3 GI50
[17] = BaF3 cells, EGFR L858R-T790M, CellTiter-Glo, read-out: L858R-T790M/BaF3 GI50
[18] = EGFR DEL19-T790M, CellTiter-Glo, read-out: DEL19-T790M GI50
[19] = CellTiter-Glo, read-out: PC9 GI50
[20] = EGFR wild type, 1 h at room temperature, read-out: IC50 @WT
[21] = 1 h at room temperature, read-out: IC50 @L858R
[22] = EGFR L858R/T790M, 1 h at room temperature, read-out: IC50 @L858R-T790M
[23] = EGFR Exon19Del, 1 mM ATP, 1 h at room temperature
[24] = EGFR Exon19Del/T790M, 1 h at room temperature, read-out: IC50 @Del19-T790M
[25] = EGFR[T790M/C797S/L858R], 1 h at room temperature, read-out: IC50 @T790M- C797S - L858R
[26] = EGFR[T790M/C797S/d746-750], 1 mM ATP, 1 h at room temperature, read-out: IC50 @T790M - C797S - Del19
[27] = EGFR (d746-750 C797S), 1 h at room temperature, read-out: IC50 @Del19-C797S
[28] = EGFR (C797S L858R), 1 h at room temperature, read-out: IC50 @L858-C797S
[29] = BaF3 cells, EGFR DEL19 - C797S, read-out: GI50 DEL19 - C797S/BaF3
[30] = BaF3 cells, EGFR DEL19 - T790-C797S, read-out: GI50 DEL19 - T790-C797S/BaF3
[31] = BaF3 cells, EGFR L858R - C797S, read-out: GI50 L858R - C797S/BaF3
[32] = BaF3 cells, EGFR L858R - T790-C797S, read-out: GI50 L858R - T790-C797S/BaF3
[33] = BaF3 cells, EGFR L858R - T790M, read-out: GI50 L858R - T790M/BaF3
[34] = BaF3 cells, EGFR L858R, read-out: GI50 L858R/BaF3
[35] = EGFR DEL19 - T790M, read-out: GI50 DEL19 - T790M

T1 sequence (P00533 25-1210): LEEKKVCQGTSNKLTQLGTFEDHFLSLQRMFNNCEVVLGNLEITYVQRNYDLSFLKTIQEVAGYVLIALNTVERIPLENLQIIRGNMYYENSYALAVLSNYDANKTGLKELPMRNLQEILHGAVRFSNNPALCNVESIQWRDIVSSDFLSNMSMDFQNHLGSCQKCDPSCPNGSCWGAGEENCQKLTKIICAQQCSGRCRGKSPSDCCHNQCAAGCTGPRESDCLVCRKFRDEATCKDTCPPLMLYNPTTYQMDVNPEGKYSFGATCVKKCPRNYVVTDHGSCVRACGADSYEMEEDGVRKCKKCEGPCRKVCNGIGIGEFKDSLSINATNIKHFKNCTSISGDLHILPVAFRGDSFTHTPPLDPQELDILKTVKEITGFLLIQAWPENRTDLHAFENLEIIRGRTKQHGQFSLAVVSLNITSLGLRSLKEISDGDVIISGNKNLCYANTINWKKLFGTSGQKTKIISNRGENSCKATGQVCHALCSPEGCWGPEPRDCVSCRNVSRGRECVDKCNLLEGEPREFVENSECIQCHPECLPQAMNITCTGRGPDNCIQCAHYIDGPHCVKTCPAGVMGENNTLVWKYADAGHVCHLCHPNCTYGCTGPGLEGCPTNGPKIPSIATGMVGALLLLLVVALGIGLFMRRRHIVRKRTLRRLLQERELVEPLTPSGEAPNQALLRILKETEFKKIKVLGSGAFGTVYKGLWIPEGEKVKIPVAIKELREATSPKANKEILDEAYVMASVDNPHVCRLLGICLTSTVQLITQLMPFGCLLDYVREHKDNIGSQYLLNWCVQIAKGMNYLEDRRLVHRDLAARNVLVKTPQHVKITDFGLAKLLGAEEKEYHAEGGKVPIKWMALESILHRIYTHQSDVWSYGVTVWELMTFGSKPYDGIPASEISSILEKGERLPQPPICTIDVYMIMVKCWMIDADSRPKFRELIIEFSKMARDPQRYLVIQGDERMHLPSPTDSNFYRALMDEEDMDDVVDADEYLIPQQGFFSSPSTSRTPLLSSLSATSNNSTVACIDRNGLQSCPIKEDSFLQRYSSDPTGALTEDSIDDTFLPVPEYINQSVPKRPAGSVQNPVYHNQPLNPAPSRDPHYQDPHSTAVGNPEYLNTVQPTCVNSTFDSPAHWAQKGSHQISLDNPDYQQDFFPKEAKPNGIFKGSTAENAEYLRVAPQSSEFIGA

IC50 (EGFR wild type; [3]) | IC50 (EGFR L858R; [4]) | IC50 (EGFR L858R/T790M; [5]) | IC50 (EGFR wild type; [20]) | IC50 (EGFR L858R; [21]) | IC50 (EGFR L858R/T790M; [22]) | IC50 (EGFR Exon19Del; [23]) | IC50 (EGFR Exon19Del/T790M; [24]) | IC50 (EGFR[T790M/C797S/L858R]; [25]) | IC50 [1, 26] | IC50 (EGFR (d746-750 C797S); [27]) | IC50 (EGFR (C797S L858R); [28]) | GI50 [2, 29] | GI50 [2, 30] | GI50 [2, 31] | GI50 [2, 32] | GI50 [2, 33] | GI50 [2, 34] | GI50 [2, 35] | GI50 (PC-9; read-out: GI50 PC9) | SMILES | further results
> 5000 nM | 1310 nM | > 5000 nM |  |  |  |  |  |  |  |  |  |  |  |  |  |  |  |  |  | CN(C)C1CN(c2ccc3nc4n(c3c2)C23CCC(CN(CCOc5c(cnn5C)-c5cc(cn(C)c5=O)C(=O)N4)C2)C3)CC1F (single isomer, unassigned) [Example A84B, 15,21-Dimethyl-5-[4-fluoro-3-(N,N-dimethylamino)pyrrolidinyl]-23-oxa-2,9,11,15,20,21,26-heptaazaheptacyclo[24.4.1.1^{1,28}.1^{13,17}.0^{2,10}.0^{3,8}.0^{18,22}]tritriaconta-3,5,7,9,13,17(33),18(22),19-octaene-12,16-dione] | IC50 (EGFR Exon19Del; [6]): 451 nM; IC50 (EGFR Exon19Del/T790M; [7]): > 5000 nM; IC50 (EGFR[T790M/C797S/L858R]; [8]): > 5000 nM; IC50 [1, 9]: > 5000 nM; IC50 (EGFR (d746-750 C797S); [10]): 400 nM; IC50 (EGFR (C797S L858R); [11]): 1140 nM; GI50 [2, 12]: 157 nM; GI50 [2, 13]: 516 nM; GI50 [2, 14]: 480 nM; GI50 [2, 15]: 302 nM; GI50 [2, 16]: 1040 nM; GI50 [2, 17]: 997 nM; GI50 [2, 18]: 545 nM; GI50 (PC-9; [19]): 768 nM
 |  |  | > 5000 nM | > 5000 nM | > 5000 nM | > 5000 nM | 3320 nM | > 5000 nM | 1080 nM | 4350 nM | > 5000 nM | 348 nM | 419 nM | 1070 nM | 91 nM | 383 nM | 2570 nM | 388 nM | 3040 nM | Cc1cc2cc(n1)-c1cnn(C)c1OCCN1CC3CCC(C3)(C1)n1c(nc3ccc(N4CC5CC4CN5C)cc31)NC2=O (single isomer, unassigned) [Example B53A] | 
 |  |  | > 5000 nM | > 5000 nM | > 5000 nM | > 5000 nM | > 5000 nM | > 5000 nM | > 5000 nM | > 5000 nM | > 5000 nM | 873 nM | 1290 nM | 3820 nM | 343 nM | 1080 nM | 9400 nM | 3760 nM | 3560 nM | Cc1cc2cc(n1)-c1cnn(C)c1OCCN1CC3CCC(C3)(C1)n1c(nc3ccc(N4CCC(N5CCOCC5)C4)cc31)NC2=O (single isomer, unassigned) [Example B44A2] | 
> 5000 nM | 1110 nM | > 5000 nM |  |  |  |  |  |  |  |  |  |  |  |  |  |  |  |  |  | CN1CCC2(CC1)CN(c1ccc3nc4n(c3c1)C13CCC(CN(CCOc5c(cnn5C)-c5cc(cn(C)c5=O)C(=O)N4)C1)C3)C2 (single isomer, unassigned) [Example A77A] | IC50 (EGFR Exon19Del; [6]): 456 nM; IC50 (EGFR Exon19Del/T790M; [7]): > 5000 nM; IC50 (EGFR[T790M/C797S/L858R]; [8]): > 5000 nM; IC50 [1, 9]: > 5000 nM; IC50 (EGFR (d746-750 C797S); [10]): 464 nM; IC50 (EGFR (C797S L858R); [11]): > 5000 nM; GI50 [2, 12]: 102 nM; GI50 [2, 13]: 326 nM; GI50 [2, 14]: 320 nM; GI50 [2, 15]: 125 nM; GI50 [2, 16]: 368 nM; GI50 [2, 17]: 375 nM; GI50 [2, 18]: 212 nM; GI50 (PC-9; [19]): 341 nM
 |  |  | 76 nM | 17 nM | 5.6 nM | 8 nM | 5.8 nM | 2.4 nM | 3.5 nM | 3.8 nM | 8 nM | 2 nM | 2 nM | 3 nM | 2 nM | 2 nM | 2 nM | 2 nM | 6 nM | Cc1cc2cc(n1)-c1cnn(C)c1OCCN1CC3CCC(C3)(C1)n1c(nc3ccc(N4CCC(N5CCN(C)CC5)C4)cc31)NC2=O (single isomer, unassigned) [Example B49B] | 
